In US9957311B2, “Surface-binding peptide” (TIKOMED AB, priority 2013, dated 2018):
Entries after “also recorded” stand apart in the source; their conditions may differ.

Tests used:
Type in all cases: cell-based
MC3T3-E1 cells = assay: DNA quantification (cell number) of cells on peptide-coated Ti; settings: 48 h culture on Ti coated with 50 μg/ml peptide, FIG. 9
Experimental: (§1) Under aseptic conditions, implants were immersed in a 3:7 (v/v) HNO3-DI water solution for 30 min at room temperature. Then, they were rinsed with milliQ water and placed in a covered milliQ water bath for 24 h. Implants were dried with N2 and were placed in a 96-well plates. Then, 200 μl of 50 μg/ml peptide solutions in PBS were added to each implant. Absorption took place for 24 h at 37° C. in a humidified atmosphere. After 24 h peptide solutions were collected and surfaces were washed with 200 μl of PBS and air-dried in order to perform cell experiments. The surfaces were denoted Ti (uncoated Ti), P1 (Ti coated with IP10-RGD), P2 (Ti coated with IP10mut-RGD), P3 (Ti coated with IP10-RGDmut) and P4 (Ti coated with IP10mut-RGDmu).
(§2) MC3T3-E1 cells were routinely cultured at 37° C. in a humidified atmosphere of 5% CO2, and maintained in α-minimum essential medium (α-MEM) supplemented with 10% fetal bovine serum (FBS) and antibiotics (50 IU penicillin/ml and 50 μg streptomycin/ml). 7.0×10^3 cells were seeded on the peptide-coated implants. Trypan blue stain was used to determine total and viable cell number. The same number of cells was cultured in parallel in plastic culture plates in the experiment. All experiments were performed after 15 passages of the MC3T3-E1 cells.
Culture media was removed from wells and plates were frozen at −80° C. until the experiment was carried out. At the day of analysis, 100 μl of distilled water were added to each well. Plates were incubated for 1 hour at room temperature. Again, plates were frozen at −80° C. to lysate cells. Plates were thawed until reaching room temperature and 100 μl of Hoechst 33258 at 20 μg/ml in THE buffer were added. Then, 200 μl aliquots were transferred to 96-well fluorescence plates and a spectrophotometer was set to record fluorescence. Relative fluorescence units were correlated with the cell number using a linear standard curve.

integrin β3 = assay: Immunocytochemistry of integrin β3 in MC3T3-E1 cells on peptide-coated Ti; settings: after 72 h of culture, FIG. 12
Experimental: as §1, with “Adsorption” for “Absorption”, “in vitro” for “cell”, “experiments.” for “experiments. The surfaces were denoted Ti (uncoated Ti), P1 (Ti coated with IP10-RGD), P2 (Ti coated with IP10mut-RGD), P3 (Ti coated with IP10-RGDmut) and P4 (Ti coated with IP10mut-RGDmu).”
as §2, with “α-MEM” for “α-minimum essential medium (α-MEM)”, “FBS” for “fetal bovine serum (FBS)”, “4” for “15”
Cells grown for 24 and 72 h on the surfaces were fixed for 15 min with 4% formaldehyde in PBS at room temperature. Cells were incubated with 0.1% Triton X-100 for 5 min, 1% bovine serum albumin for 30 min and then with anti-integrin beta-3 antibody for 1 h at 1:50 dilution in PBS. Then, a Cy3-conjugated goat anti-rabbit IgG was used as secondary antibody for 1.5 h at 1:200 dilution in PBS. For actin cytoskeleton visualization, cells were stained with phalloidin-FITC 5 μg/mL in PBS for 30 min. Cells were washed with PBS and coin-shaped samples were placed on slides. Finally, a drop of Fluoroshield with DAPI was added and cover glasses were mounted on the samples. Two samples of each group were used to perform the experiment and two images of each sample were taken with the confocal microscope (Leica DMI 4000B equipped with Leica TCS SPE laser system).

Integrin α8 (Itga8) = assay: Real-time RT-PCR gene expression in MC3T3-E1 cells on peptide-coated Ti; settings: after 72 h of cell culture, FIG. 11
Experimental: as §1, with “Adsorption” for “Absorption”, “in vitro” for “cell”, “The surfaces were denoted Ti (uncoated Ti), P1 (Ti coated with IP10-RGD), P2 (Ti coated with IP10mut-RGD), P3 (Ti coated with IP10-RGDmut) and P4 (Ti coated with IP10mut-RGDmu).” left out
(§3) Total RNA was isolated using Tripure, according to the manufacturer's protocol. Total RNA was quantified at 260 nm using a Nanodrop spectrophotometer. […]
(§4) Each reaction contained 7 μl Lightcycler-FastStart DNA MasterPLUS SYBR Green I (containing Fast Start Taq polymerase, reaction buffer, dNTPs mix, SYBRGreen I dye and MgCl2), 0.5 μM of each, the sense and the antisense specific primers and 3 μl of the cDNA dilution in a final volume of 10 μl. […] After each cycle, fluorescence was measured at 72° C. […]
(§5) All samples were normalized by the geometric mean of the expression levels of 18S rRNA and Gapdh and fold changes were related to day 1 of culture using the mathematical model described by Pfaffl, A new mathematical model for relative quantification in real-time RT-PCR, Nucleic Acids Research 2001, 29: e45: […]

integrin β3 (Itgb3) = assay: as above; settings: after 72 h of cell culture, FIG. 11
Experimental: as §1, with “Adsorption” for “Absorption”, “in vitro” for “cell”, “The surfaces were denoted Ti (uncoated Ti), P1 (Ti coated with IP10-RGD), P2 (Ti coated with IP10mut-RGD), P3 (Ti coated with IP10-RGDmut) and P4 (Ti coated with IP10mut-RGDmu).” left out
as §3, §4, §5

MKKKGEGGGGGGGGRGDS (IP-10 derived peptide connected to RGD motif via poly-G-linker) [Peptide P1, surface P1 = Ti coated with it]
number of cells (DNA quantification) (MC3T3-E1 cells): highest number of cells | integrin β3 staining (integrin β3): allowed integrin β3 visualization; also recorded: highest integrin β3 staining; also recorded: allowed specific anti-integrin β3 staining | expression of Itga8 compared with uncoated surfaces (Integrin α8 (Itga8)): increased gene expression | expression of Itgb3 compared with uncoated surfaces (integrin β3 (Itgb3)): increased gene expression
